Assay results as given in paper PMC6161302, “Oral Bioavailability of Kinsenoside in Beagle Dogs Measured by LC-MS/MS: Improvement of Ex Vivo Stability of a Lactone-Containing Compound” (Pharmaceutics, 2018).
Like-named read-outs stand apart in the source and are kept apart here.

Columns and labels:
[1] = Pharmacokinetic and bioavailability study of KD in beagle dogs (intravenous and oral); format: in vivo, beagle dog; conditions: for Tmax / AUC(0-t): beagle; for k el: read-out: λz (converted)
Excerpt: The validated method was applied to a preclinical pharmacokinetic and bioavailability study of KD in beagle dogs following intravenous and oral administration. The study protocol (Project ID: HUST-D-201802004) was approved on 5 March 2018 by the Animal Ethics Committee in Tongji Medical College, Huazhong University of Science and Technology (Wuhan, China). Six beagle dogs (3 males and 3 females) weighing 10.0 ± 2.0 kg were purchased from Ruikesen Experimental Animal Co., Ltd. (Wuhan, China). All dogs were individually housed at a temperature of 25 °C and 50% relative humidity under a 12 h light/dark cycle. A laboratory standard diet and water were provided ad libitum. After overnight fasting with unlimited access to water, the six beagle dogs were randomly divided into two groups. One group was intravenously injected via lateral saphenous vein with 3 mg/kg KD, while the other group was given a single oral dose of 3 mg/kg KD. After a 7-day washout period, each group received the other treatment. For intravenous administration, blood samples (approximately 1 mL) were collected via cephalic vein into 3 mL K2EDTA-containing vacutainer tubes at pre-dose and at 0.083, 0.25, 0.5, 0.75, 1, 1.25, 1.5, 2, 2.5, 3, 4, and 5 h after administration. For oral administration, blood samples (approximately 1 mL) were collected at pre-dose and at 0.25, 0.5, 0.75, 1, 1.25, 1.5, 2, 2.5, 3, 4, 5, 6, and 7 h post-dose. Blood samples were maintained on wet ice and centrifuged under 4 °C at 3500 × g for 5 min to obtain plasma. Plasma samples were immediately transferred to pre-cooled plastic Eppendorf tubes and stored at −80 °C until analyzed.
The pharmacokinetic parameters were calculated using noncompartmental analysis by Phoenix WinNonlin software (Version 6.4, Pharsight Corporation, Princeton, NC, USA). The maximum plasma concentration (Cmax) and time to reach Cmax (Tmax) were obtained directly from the plasma concentration time course. The area under the plasma concentration versus time curve (AUC) from time zero to the last measured time point (AUC0–t) and from time zero to infinity (AUC0–∞) were estimated using the log-linear trapezoidal rule, while the elimination half-life (t1/2), the total body clearance (CL), and the apparent volume of distribution (Vd) were processed by Phoenix WinNonlin software. Oral bioavailability (F) was calculated using the formula F = (AUCpo/AUCiv) × (Doseiv/Dosepo).

[2] = Stability of KD in fresh dog whole blood; format: in vitro ADME, beagle dog
Experimental: (§1) The stability of KD in fresh dog whole blood and plasma was studied by decreasing pH, lowering temperature, and adding different esterase inhibitors. All experiments were performed in triplicate using three different lots of fresh dog whole blood or plasma. To decrease the pH of the matrixes, 1% formic acid (FA) or 1% AA was individually added to the fresh blank whole blood or plasma with a ratio of 1:9. Likewise, DDVP, NaF, and PMSF were separately added to fresh blank whole blood or plasma to obtain a final concentration of 50 mM. After 5 min pre-incubation, KD was spiked with pretreated whole blood or plasma to obtain final concentrations of 15, 150, and 1500 ng/mL. The whole blood mixture was maintained at room temperature or on wet ice for 2 h except for samples of time zero, which were centrifuged immediately to collect plasma, while the plasma mixture was maintained at room temperature or on wet ice for 0, 2, and 6 h. Then, the obtained plasma samples were cleaned up using the previously mentioned sample preparation procedures. The remaining percentage of KD was calculated by dividing the plasma concentration of KD under different incubation conditions by the concentration of time zero samples [13].

liver microsomal enzyme = test system: liver microsomal enzyme; design: method as in doi:10.5478/MSL.2015.6.2.48; conditions: cited from earlier work
[3] = Stability of KD in fresh dog plasma; format: in vitro ADME, beagle dog
Experimental: as §1

[4] = Method-validation stability of kinsenoside in beagle dog plasma under various storage conditions; format: in vitro ADME
Experimental: The stability of stock solutions (2.5 mg/mL for KD and 1 mg/mL for IS) and working solutions (125 and 50,000 ng/mL for KD and 500 ng/mL for IS) was evaluated at room temperature for 6 h and at −80 °C for 31 days. The matrix stability was evaluated from three replicates of each QC sample stored in different conditions using freshly prepared calibration standards. The QC samples were analyzed after storage on wet ice for 2 h (short-term stability) and at −80 °C for 21 days (long-term stability). The freeze–thaw stability was determined after freezing at −80 °C and thawing on wet ice for three cycles. To evaluate the post-preparative stability, QC samples were analyzed after being held in the autosampler for 24 h at 4 °C. The samples for stability evaluation were considered stable if the deviation was within ±15% of the nominal concentration.

[5] = design: method as in PMID 26686829; conditions: cited from earlier work
[6] = both sexes, dog, plasma, beagle dogs, intravenous, 3 mg/kg
[7] = both sexes, dog, plasma, beagle dogs, oral, 3 mg/kg
[8] = plasma samples after three freeze–thaw cycles, nominal 15 ng/mL
[9] = plasma samples after three freeze–thaw cycles, nominal 150 ng/mL
[10] = plasma samples after three freeze–thaw cycles, nominal 1500 ng/mL
[11] = plasma samples on wet ice for 2 h, nominal 15 ng/mL
[12] = plasma samples on wet ice for 2 h, nominal 150 ng/mL
[13] = plasma samples on wet ice for 2 h, nominal 1500 ng/mL
[14] = plasma samples stored at −80 °C for 21 days, nominal 15 ng/mL
[15] = plasma samples stored at −80 °C for 21 days, nominal 150 ng/mL
[16] = plasma samples stored at −80 °C for 21 days, nominal 1500 ng/mL
[17] = post-preparative samples stored at 4 °C for 24 h, nominal 15 ng/mL
[18] = post-preparative samples stored at 4 °C for 24 h, nominal 150 ng/mL
[19] = post-preparative samples stored at 4 °C for 24 h, nominal 1500 ng/mL

Q: With O=C1C[C@@H](O[C@@H]2O[C@H](CO)[C@@H](O)[C@H](O)[C@H]2O)CO1 [kinsenoside, Kinsenoside] as the compound, how does the Tmax ([1]; both sexes, dog, plasma, iv, 3 mg/kg, beagle dogs) read?
A: The Tmax was 5 min.

Q: And the AUC(0-t) ([1]; both sexes, dog, plasma, iv, 3 mg/kg, beagle dogs, intravenous, 3 mg/kg, read-out: AUC0–t)?
A: Its AUC(0-t) is 6820 ± 295 ng·h/mL.

Q: What about the AUC(0-t) ([1]; both sexes, dog, plasma, iv, 3 mg/kg, beagle dogs, intravenous, 3 mg/kg, read-out: mean AUC0-t (converted)) of the same compound?
A: Its AUC(0-t) is 114 ng·h/mL.

Q: And the Tmax ([1]; both sexes, dog, plasma, po, 3 mg/kg, beagle dogs)?
A: The Tmax was ~62.4 min.

Q: What about the AUC(0-t) ([1]; both sexes, dog, plasma, po, 3 mg/kg, beagle dogs, oral, 3 mg/kg, read-out: AUC0–t) of the same compound?
A: The AUC(0-t) was 1880 ± 17.6 ng·h/mL.

Q: What about the AUC(0-t) ([1]; both sexes, dog, plasma, po, 3 mg/kg, beagle dogs, oral, 3 mg/kg, read-out: mean AUC0-t (converted)) of the same compound?
A: Its AUC(0-t) is 31.3 ng·h/mL.

Q: And the AUC(0-inf) [1, 6]?
A: The AUC(0-inf) was 6830 ± 295 ng·h/mL.

Q: What about the Cmax [1, 6] of the same compound?
A: The Cmax was 11400 ng/mL.

Q: What about the Vd [1, 6] of the same compound?
A: The Vd was 0.3 ± 0.0171 L/kg.

Q: And the clearance [1, 6]?
A: Its clearance is 7.33 mL/min/kg.

Q: What about the half-life [1, 6] of the same compound?
A: The half-life was 28.2 ± 0.78 min.

Q: And the k el [1, 6]?
A: Its k el is 0.000408 s⁻¹.

Q: And the bioavailability ([1]; both sexes, dog, plasma, beagle dogs, oral 3 mg/kg vs intravenous 3 mg/kg, read-out: Bioavailability (absolute oral))?
A: The bioavailability was 27.6%.

Q: What about the AUC(0-inf) [1, 7] of the same compound?
A: The AUC(0-inf) was 1910 ± 42.5 ng·h/mL.

Q: And the Cmax [1, 7]?
A: Its Cmax is 965 ± 59.7 ng/mL.

Q: And the half-life [1, 7]?
A: Its half-life is 54.9 ± 5.64 min.

Q: What about the k el [1, 7] of the same compound?
A: The k el was 0.000212 s⁻¹.

Q: And the “bioavailability of KD relative to the majority of extensively researched isoflavone glycosides” value ([1]; comparison with literature values)?
A: The value was “at least 4 fold”.

Q: And the KD remaining ([2]; 2 h incubation at room temperature)?
A: The KD remaining was 60%.

Q: What about the KD remaining ([2]; 2 h incubation on wet ice, three concentration levels (15, 150, 1500 ng/mL)) of the same compound?
A: The KD remaining was “around 90%”.

Q: And the “stability against liver microsomal enzyme-associated metabolism” value (liver microsomal enzyme)?
A: The value was “stable”.

Q: And the KD remaining ([3]; dog plasma, 2 h incubation on wet ice)?
A: The KD remaining was “more than 90%”.

Q: What about the “percentage remaining of KD” value ([3]; neutral and acidified dog plasma, 6 h incubation on wet ice) of the same compound?
A: The value was “around 85%”.

Q: And the “Accuracy (stability, % of nominal)” value [4, 8]?
A: Its value is 89.53%.

Q: What about the “Calculated Conc.” value [4, 8] of the same compound?
A: Its value is 13.43 ± 0.46 ng/mL.

Q: And the “Accuracy (stability, % of nominal)” value [4, 9]?
A: The value was 90.89%.

Q: What about the “Calculated Conc.” value [4, 9] of the same compound?
A: The value was 136.33 ± 4.50 ng/mL.

Q: And the “Accuracy (stability, % of nominal)” value [4, 10]?
A: Its value is 92.44%.

Q: And the “Calculated Conc.” value [4, 10]?
A: Its value is 1386.67 ± 24.94 ng/mL.

Q: And the “Accuracy (stability, % of nominal)” value [4, 11]?
A: The value was 95.11%.

Q: What about the “Calculated Conc.” value [4, 11] of the same compound?
A: The value was 14.27 ± 0.74 ng/mL.

Q: What about the “Accuracy (stability, % of nominal)” value [4, 12] of the same compound?
A: Its value is 93.87%.

Q: What about the “Calculated Conc.” value [4, 12] of the same compound?
A: Its value is 140.80 ± 2.98 ng/mL.

Q: What about the “Accuracy (stability, % of nominal)” value [4, 13] of the same compound?
A: The value was 91.61%.

Q: And the “Calculated Conc.” value [4, 13]?
A: Its value is 1374.13 ± 24.63 ng/mL.

Q: What about the “Accuracy (stability, % of nominal)” value [4, 14] of the same compound?
A: The value was 90.89%.

Q: What about the “Calculated Conc.” value [4, 14] of the same compound?
A: The value was 13.63 ± 0.36 ng/mL.

Q: What about the “Accuracy (stability, % of nominal)” value [4, 15] of the same compound?
A: The value was 91.78%.

Q: And the “Calculated Conc.” value [4, 15]?
A: Its value is 137.67 ± 2.62 ng/mL.

Q: And the “Accuracy (stability, % of nominal)” value [4, 16]?
A: The value was 93.78%.

Q: And the “Calculated Conc.” value [4, 16]?
A: The value was 1406.67 ± 26.25 ng/mL.

Q: What about the “Accuracy (stability, % of nominal)” value [4, 17] of the same compound?
A: The value was 89.47%.

Q: And the “Calculated Conc.” value [4, 17]?
A: The value was 13.42 ± 0.37 ng/mL.

Q: What about the “Accuracy (stability, % of nominal)” value [4, 18] of the same compound?
A: The value was 91.67%.

Q: And the “Calculated Conc.” value [4, 18]?
A: The value was 137.50 ± 4.99 ng/mL.

Q: And the “Accuracy (stability, % of nominal)” value [4, 19]?
A: The value was 88.89%.

Q: What about the “Calculated Conc.” value [4, 19] of the same compound?
A: Its value is 1333.33 ± 34.60 ng/mL.

Q: And the “stability in rat plasma (ex vivo)” value [5]?
A: The value was “unstable”.
